IC50 data for 15 compounds are collected here from patent US11040028B2, “Penicinotam derivative, preparation method and use thereof” (OCEAN UNIVERSITY OF CHINA, priority 2017, dated 2021).

Bounds are passed on as bounds.

Common to all, as to type: cell-based
Test [1] relates to human lung fibroblasts HFL1. As to the kind of experiment: Anti-fibrosis activity test: inhibition of proliferation of human lung fibroblasts HFL1 (CCK-8). The following applies: Homo sapiens, HFL1, 48 h, human lung fibroblasts HFL1, CCK-8, 48 hours. The essentials:
(§1)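 Cells were seeded at 2×10^4 cells/mL and allowed to adhere for 24 h at 37° C, 5% CO2, then exposed to graded compound concentrations in triplicate for 48 h. CCK-8 was added for 2 h, A450 was read, and IC50 was derived from inhibition rate = (1−Ai/Ao)×100%.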

The subject of the next test is NF-κB. As to the kind of experiment: Immunological activity test: inhibition of NF-κB activity. The note with it: initial concentration of 30 μM; a/b isomers given as first/second symbol; read-out: IC50 (μM), inhibitory activity against NF-κB. Summed up:
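Compounds were first screened for inhibition of NF-κB activity at 30 μM, with parthenolide as the positive control. IC50 values were then determined for the compounds by further analysis of the assay data.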

The test system of test [2] is human fibrosarcoma cells HT-1080. As to the kind of experiment: Anti-fibrosis activity test: inhibition of proliferation of human fibrosarcoma cells HT-1080 (CCK-8). The note with it: Homo sapiens, HT-1080, 48 h, human fibrosarcoma cells HT-1080, CCK-8, 48 hours. The essentials: as §1
In test [3] the test system is human hepatic stellate cells LX-2. As to the kind of experiment: Anti-fibrosis activity test: inhibition of proliferation of human hepatic stellate cells LX-2 (CCK-8). The following applies: Homo sapiens, 48 h, human hepatic stellate cells LX-2, CCK-8, 48 hours. Summed up:
as §1

Test [4] has as its system mouse macrophages (RAW264.7). As to the kind of experiment: Lipopolysaccharide-induced NO secretion in macrophages (Griess). The following applies: Mus musculus, RAW264.7, 24 h, RAW264.7, LPS 1 μg/ml, a/b isomers given as first/second symbol, read-out: IC50 (μM), inhibition of lipopolysaccharide-induced NO secretion in macrophages. Summed up: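 RAW264.7 cells in DMEM with 10% FBS were treated with test compounds at several concentrations, then stimulated with LPS (1 μg/ml) for 24 hours. Nitrite in the supernatant was measured by Griess reaction at 548 nm, and percent inhibition was calculated against blank-medium controls.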
A general note: Griess reagent forms a coloured azo dye with nitrite.

In the next test the test system is BHK-21 cells. As to the kind of experiment: Anti-fibrosis activity test: inhibition of BHK-21 cell proliferation (CCK-8). The note with it: Mesocricetus auratus, BHK-21, 48 h, CCK-8, 48 hours after administration. The essentials: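 Cells plated 2×10^4 cells/mL; 24 h attach; compound dilutions, triplicate, 48 h, 37° C/5% CO2; CCK-8 2 h; A450; IR = (1−Ai/Ao)×100%; IC50 by curve fit.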

Test [5] concerns human embryonic lung fibroblast IMR-90. As to the kind of experiment: Anti-fibrosis activity test: inhibition of proliferation of human embryonic lung fibroblast IMR-90 (CCK-8). The following applies: human embryonic lung fibroblast IMR-90, CCK-8, 48 hours. Summed up: as §1
Test [6] relates to cardiac fibroblast RAT-iCell-C002. As to the kind of experiment: Anti-fibrosis activity test: inhibition of proliferation of cardiac fibroblast RAT-iCell-C002 (CCK-8). The following applies: Cardiac fibroblast, 48 h, cardiac fibroblast RAT-iCell-C002, CCK-8, 48 hours. Summed up:
as §1

For test [7], the system named is human dermal fibroblasts CCC-ESF-1. As to the kind of experiment: Anti-fibrosis activity test: inhibition of proliferation of human dermal fibroblasts CCC-ESF-1 (CCK-8). The following applies: Fibroblast; human dermal fibroblasts CCC-ESF-1, CCK-8, 48 hours. Summed up: as §1

Regarding `O=C1c2c(nc3ccccc3c2OCc2ccc(F)c(Cl)c2)-c2cccn21` [Compound 603b, 9-((3-chloro-4-fluorobenzyl)oxy)-10H-pyrrolizino[1,2-b]quinolin-10-one], the half-maximal inhibitory concentration (IC50) (in general, the concentration that gives 50% inhibition) lay in the range of 0.05 to 5 mM in test [1]; 1 to 10 µM in the test with NF-κB; 0.05 to 5 mM in test [2]; 0.05 to 5 mM in [3]; 1 to 10 µM in test [4]; 0.05 to 5 mM in the test on BHK-21 cells. For the same compound, the IC50 in test [5], in [6] and in [7] was 0.05 to 5 mM each time.
With `Cc1ccc(Cn2c3c(c(=O)c4ccccc42)C(=O)n2cccc2-3)cc1` [Compound 604a, 4-(4-Methylbenzyl)-9H-pyrrolizino[1,2-b]quinoline-9,10(4H)-dione], the IC50 in test [1] is 0.05 to 5 mM; with NF-κB, 1 to 10 µM; in test [2], less than 0.05 mM; in test [3], 0.05 to 5 mM; in test [4] it was 1 to 10 µM; in the test on BHK-21 cells, 0.05 to 5 mM. For the same compound, the 50% inhibitory concentration (IC50) in test [5], in test [6] and in test [7] was 0.05 to 5 mM throughout.
Turning to `Cc1ccc(COc2c3c(nc4ccccc24)-c2cccn2C3=O)cc1` [Compound 604b, 9-((4-methylbenzyl)oxy)-10H-pyrrolizino[1,2-b]quinolin-10-one], the IC50 fell in the range of 0.05 to 5 mM in test [1]; 1 to 10 µM with NF-κB; 0.05 to 5 mM in test [2]; 0.05 to 5 mM in test [3]; 1 to 10 µM in test [4]; 0.05 to 5 mM with BHK-21 cells. For the same compound, the IC50 in test [5], in test [6] and in [7] was 0.05 to 5 mM throughout.
Turning to `CC(C)(C)c1ccc(Cn2c3c(c(=O)c4ccccc42)C(=O)n2cccc2-3)cc1` [Compound 605a, 4-(4-(Tert-butyl)benzyl)-9H-pyrrolizino[1,2-b]quinoline-9,10(4H)-dione], the IC50 lay in the range of 0.05 to 5 mM in [1]; 1 to 10 µM in the test on NF-κB; 0.05 to 5 mM in [2]; 0.05 to 5 mM in [3]; 1 to 10 µM in [4]; 0.05 to 5 mM with BHK-21 cells. The IC50 in test [5], in test [6] and in test [7] was 0.05 to 5 mM each time.
For `CC(C)(C)c1ccc(COc2c3c(nc4ccccc24)-c2cccn2C3=O)cc1` [Compound 605b, 9-((4-(tert-butyl)benzyl)oxy)-10H-pyrrolizino[1,2-b]quinolin-10-one], the IC50 in [1] is 0.05 to 5 mM; with NF-κB it was 1 to 10 µM; in test [2], 0.05 to 5 mM; in test [3], 0.05 to 5 mM; in test [4], 1 to 10 µM; with BHK-21 cells, 0.05 to 5 mM. Besides, the half-inhibitory concentration (IC50) in test [5], in [6] and in test [7] was 0.05 to 5 mM throughout.
As to `O=C1c2c(n(Cc3ccc(Br)cc3F)c3ccccc3c2=O)-c2cccn21` [Compound 606a, 4-(4-Bromo-2-fluorobenzyl)-9H-pyrrolizino[1,2-b]quinoline-9,10(4H)-dione], the IC50 was 0.05 to 5 mM in [1]; 0.1 to 1 µM in the test with NF-κB; less than 0.05 mM in test [2]; 0.05 to 5 mM in test [3]; 1 to 10 µM in [4]; less than 0.05 mM with BHK-21 cells. Moreover, the IC50 in test [5], in [6] and in test [7] was 0.05 to 5 mM each time.
For the compound `O=C1c2c(nc3ccccc3c2OCc2ccc(Br)cc2F)-c2cccn21` [Compound 606b, 9-((4-bromo-2-fluorobenzyl)oxy)-10H-pyrrolizino[1,2-b]quinolin-10-one], the IC50 in [1] was in the range of 0.05 to 5 mM; in the test on NF-κB, 1 to 10 µM; in [2] it was 0.05 to 5 mM; in [3] it was 0.05 to 5 mM; in test [4], 1 to 10 µM; in the test on BHK-21 cells, 0.05 to 5 mM. Moreover, the 50% inhibitory concentration (IC50) in test [5], in [6] and in test [7] was 0.05 to 5 mM throughout.
On to `O=C1c2c(n(Cc3cc(C(F)(F)F)cc(C(F)(F)F)c3)c3ccccc3c2=O)-c2cccn21` [Compound 607a, 4-(3,5-Bis(trifluoromethyl)benzyl)-9H-pyrrolizino[1,2-b]quinoline-9,10(4H)-dione], for which the IC50 in test [1] fell in the range of 0.05 to 5 mM; with NF-κB it was 1 to 10 µM; in test [2], 0.05 to 5 mM; in test [3], 0.05 to 5 mM; in [4] it was 0.1 to 1 µM; in the test with BHK-21 cells, 0.05 to 5 mM. Further, the half-inhibitory concentration (IC50) in [5], in test [6] and in test [7] was 0.05 to 5 mM in each case.
`O=C1c2c(nc3ccccc3c2OCc2cc(C(F)(F)F)cc(C(F)(F)F)c2)-c2cccn21` [Compound 607b, 9-((3,5-bis(trifluoromethyl)benzyl)oxy)-10H-pyrrolizino[1,2-b]quinolin-10-one]: the IC50 in test [1] lay in the range of 0.05 to 5 mM; in the test on NF-κB it was 1 to 10 µM; in test [2], 0.05 to 5 mM; in [3], 0.05 to 5 mM; in test [4], 1 to 10 µM; in the test on BHK-21 cells, 0.05 to 5 mM. Moreover, the IC50 in [5], in [6] and in test [7] was 0.05 to 5 mM throughout.
On to `O=C1c2c(n(Cc3cccc(I)c3)c3ccccc3c2=O)-c2cccn21` [Compound 608a, 4-(3-Iodobenzyl)-9H-pyrrolizino[1,2-b]quinoline-9,10(4H)-dione], for which the concentration for half-maximal inhibition (IC50) in test [1] was 0.05 to 5 mM; in the test with NF-κB it was 1 to 10 µM; in [2] it was 0.05 to 5 mM; in test [3] it was 0.05 to 5 mM; in [4], 1 to 10 µM; in the test with BHK-21 cells, less than 0.05 mM. In addition, the values for the IC50 in test [5], in test [6] and in test [7] were less than 0.05 mM, 0.05 to 5 mM and 0.05 to 5 mM, respectively.
In the case of `O=C1c2c(nc3ccccc3c2OCc2cccc(I)c2)-c2cccn21` [Compound 608b, 9-((3-iodobenzyl)oxy)-10H-pyrrolizino[1,2-b]quinolin-10-one], the IC50 was in the range of 0.05 to 5 mM in [1]; 1 to 10 µM in the test on NF-κB; 0.05 to 5 mM in [2]; 0.05 to 5 mM in test [3]; 1 to 10 µM in test [4]; 0.05 to 5 mM with BHK-21 cells. The IC50 in test [5], in test [6] and in [7] was 0.05 to 5 mM in each case.
As to `Cc1cccc(Cn2c3c(c(=O)c4ccccc42)C(=O)n2cccc2-3)c1` [Compound 609a, 4-(3-Methylbenzyl)-9H-pyrrolizino[1,2-b]quinoline-9,10(4H)-dione], the 50% inhibitory concentration (IC50) was in the range of 0.05 to 5 mM in test [1]; 1 to 10 µM with NF-κB; 0.05 to 5 mM in [2]; 0.05 to 5 mM in test [3]; 0.1 to 1 µM in test [4]; 0.05 to 5 mM in the test on BHK-21 cells. Also, the IC50 in test [5], in test [6] and in [7] was 0.05 to 5 mM throughout.
With `Cc1cccc(COc2c3c(nc4ccccc24)-c2cccn2C3=O)c1` [Compound 609b, 9-((3-methylbenzyl)oxy)-10H-pyrrolizino[1,2-b]quinolin-10-one], the half-inhibitory concentration (IC50) in [1] was in the range of 0.05 to 5 mM; in the test on NF-κB, 1 to 10 µM; in test [2], 0.05 to 5 mM; in test [3] it was 0.05 to 5 mM; in test [4], 1 to 10 µM; in the test with BHK-21 cells, 0.05 to 5 mM. The IC50 in test [5], in test [6] and in test [7] was 0.05 to 5 mM each time.
As for `COc1cccc(Cn2c3c(c(=O)c4ccccc42)C(=O)n2cccc2-3)c1` [Compound 610a, 4-(3-Methoxybenzyl)-9H-pyrrolizino[1,2-b]quinoline-9,10(4H)-dione], the IC50 in test [1] was in the range of 0.05 to 5 mM; with NF-κB, 1 to 10 µM; in test [2], 0.05 to 5 mM; in test [3], 0.05 to 5 mM; in [4], 1 to 10 µM; in the test on BHK-21 cells, 0.05 to 5 mM. Also, the IC50 in test [5], in [6] and in test [7] was 0.05 to 5 mM in each case.
Turning to `COc1cccc(COc2c3c(nc4ccccc24)-c2cccn2C3=O)c1` [Compound 610b, 9-((3-methoxybenzyl)oxy)-10H-pyrrolizino[1,2-b]quinolin-10-one], the IC50 in [1] fell in the range of 0.05 to 5 mM; with NF-κB, 1 to 10 µM; in test [2], 0.05 to 5 mM; in test [3], 0.05 to 5 mM; in test [4] it was 1 to 10 µM; in the test with BHK-21 cells, 0.05 to 5 mM. Moreover, the IC50 in test [5], in test [6] and in test [7] was 0.05 to 5 mM in each case.
